Experiments:
[1] = octanol/water
Description: Partition coefficient (logP)

physchem = details: octanol/water
Description: Partition coefficient (logP)

Compound | logP [1] | logP (physchem)
O=C1OC(C(O)CO)C(O)=C1O (stereo not given) | -4.04 | –
O=NN(CCCl)C(=O)NC1CCC(=O)NC1=O (stereo not given) | – | 0.37
OC(CBr)C(O)C(O)C(O)CBr (stereo not given) | – | -0.29
O[C@@H]1CO[C@H]2[C@@H]1OC[C@H]2O | – | -1.29
Cc1cc(N2C(N)=NC(N)=NC2(C)C)ccc1OCc1cccc(C(N)=O)c1 | – | -2.46
O=NN(CCCl)C(=O)NCCCl [CARMUSTINE] | – | 1.54
CN1CC(=O)NC1=N [CREATININE] | -1.77 | –
COc1cccc2c1C(=O)c1c(O)c3c(c(O)c1C2=O)C[C@@](O)(C(=O)CO)C[C@@H]3O[C@H]1C[C@H](N)[C@H](O)[C@H](C)O1 [DOXORUBICIN] | – | -0.1
CCc1nc(N)nc(N)c1-c1ccc(Cl)c(Cl)c1 [ETOPRINE] | – | 3.19
O=c1[nH]cc(F)c(=O)[nH]1 [FLUOROURACIL] | – | -0.95
OCC(O)CO [GLYCERIN] | – | -1.75
O=NN(CCCl)C(=O)NC1CCCCC1 [LOMUSTINE] | – | 2.83
OC[C@@H](O)[C@@H](O)[C@H](O)[C@H](O)CO [MANNITOL] | – | -3.1
Cc1ncc([N+](=O)[O-])n1CCO [METRONIDAZOLE] | – | -0.16
O=C1NC2(CCCCC2)C(=O)N1CCN(CCCl)CCCl [SPIROMUSTINE] | – | 2.47
O=c1[nH]c(=O)n(C2CCCO2)cc1F (stereo not given) [TEGAFUR] | – | -0.48
COc1cc([C@@H]2c3cc4c(cc3[C@@H](O[C@@H]3O[C@@H]5CO[C@@H](c6cccs6)O[C@H]5[C@H](O)[C@H]3O)[C@H]3COC(=O)[C@H]23)OCO4)cc(OC)c1O [TENIPOSIDE] | 2.8 | –
NC(N)=O [UREA] | -2.8 | –
CC[C@]1(O)C[C@H]2CN(CCc3c([nH]c4ccccc34)[C@@](C(=O)OC)(c3cc4c(cc3OC)N(C=O)[C@H]3[C@@](O)(C(=O)OC)[C@H](OC(C)=O)[C@]5(CC)C=CCN6CC[C@]43[C@@H]65)C2)C1 [VINCRISTINE] | – | 2.8
BLEOMYCIN | -3.3 | –
